Results on 27 compounds are retold here after patent US11149018B2, “Substituted N-arylethyl-2-aminoquinoline-4-carboxamides and use thereof” (Bayer Aktiengesellschaft, priority 2017, dated 2021).

As usually defined, the IC50 is the point on the concentration scale where inhibition reaches its midpoint.

Sequence of FP receptor (P43088 whole entry): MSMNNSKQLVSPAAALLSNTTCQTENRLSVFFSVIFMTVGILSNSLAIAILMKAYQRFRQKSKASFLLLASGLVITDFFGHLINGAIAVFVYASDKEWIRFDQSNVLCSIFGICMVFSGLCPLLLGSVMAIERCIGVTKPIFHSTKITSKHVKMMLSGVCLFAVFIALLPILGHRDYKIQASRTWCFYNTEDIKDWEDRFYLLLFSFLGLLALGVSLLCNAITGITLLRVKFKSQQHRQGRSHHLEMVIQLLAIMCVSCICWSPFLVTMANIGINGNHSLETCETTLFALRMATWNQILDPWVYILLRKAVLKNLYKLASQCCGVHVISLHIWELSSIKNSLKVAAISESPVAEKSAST

The target in the assay is FP receptor (Homo sapiens (Human), UniProt P43088). In words: In vitro test of inhibition of human FP receptor activity (PGF2α-induced calcium flux in FP-expressing CHEM1 cells). It is filed as cell-based. To be noted: PGF2α 2 nM, some mean values of multiple determinations. The gist of the method:
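FP antagonism in FP-expressing CHEM1 cells loaded with Fluo-8. Compound preincubated 10 min at 37° C, then receptor stimulated with 2 nM (final) PGF2α in calcium-free Tyrode with 2 mM CaCl2.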
On the technique in general: A change in cytosolic calcium serves as a functional read-out for many receptors and channels.
For `Cc1c(N2CCCC2)nc2ccc(Br)cc2c1C(=O)NCC(CCC(=O)O)c1c(F)cccc1F` (racemic) [Example 247, (+/−)-5-({[6-Bromo-3-methyl-2-(pyrrolidin-1-yl)quinolin-4-yl]carbonyl}amino)-4-(2,6-difluorophenyl)pentanoic acid hydrogenformate], the IC50 was 55 nM.
For `Cc1c(N2CCCC(F)(F)C2)nc2ccc(Br)cc2c1C(=O)NCC(CCC(=O)O)c1c(F)cccc1F` (racemic) [Example 250, (+/−)-5-({[6-Bromo-2-(3,3-difluoropiperidin-1-yl)-3-methylquinolin-4-yl]carbonyl}amino)-4-(2,6-difluorophenyl)pentanoic acid], the IC50 is 20 nM.
For `Cc1c(N2CCCCC2)nc2ccc(Br)cc2c1C(=O)NCC(CCC(=O)O)c1cc(F)ccc1F` (racemic) [Example 255, (+/−)-5-({[6-Bromo-3-methyl-2-(piperidin-1-yl)quinolin-4-yl]carbonyl}amino)-4-(2,5-difluorophenyl)pentanoic acid] the value was 20 nM; for `Cc1c(N2CCCC2)nc2ccc(Br)cc2c1C(=O)NCC(CCC(=O)O)c1cc(F)ccc1F` (racemic) [Example 258, (+/−)-5-({[6-Bromo-3-methyl-2-(pyrrolidin-1-yl)quinolin-4-yl]carbonyl}amino)-4-(2,5-difluorophenyl)pentanoic acid], 80 nM.
For `Cc1c(N2CCCC(F)(F)C2)nc2ccc(Br)cc2c1C(=O)NCC(CCC(=O)O)c1cc(F)ccc1F` (racemic) [Example 261, (+/−)-5-({[6-Bromo-2-(3,3-difluoropiperidin-1-yl)-3-methylquinolin-4-yl]carbonyl}amino)-4-(2,5-difluorophenyl)pentanoic acid] the value was 28 nM.
For `Cc1c(N2CC=CCC2)nc2ccc(Br)cc2c1C(=O)NCC(CCC(=O)O)c1ccccc1Cl` (single isomer, unassigned) [Example 30, 5-({[6-Bromo-2-(3,6-dihydropyridin-1(2H)-yl)-3-methylquinolin-4-yl]carbonyl}amino)-4-(2-chlorophenyl)pentanoic acid], the IC50 is 8.7 nM.
In the case of `Cc1c(N2CC=CCC2)nc2ccc(Br)cc2c1C(=O)NCC(CCC(=O)O)c1ccccc1Cl` (single isomer, unassigned) [Example 31, 5-({[6-Bromo-2-(3,6-dihydropyridin-1(2H)-yl)-3-methylquinolin-4-yl]carbonyl}amino)-4-(2-chlorophenyl)pentanoic acid], the IC50 was determined as 29 nM.
For `Cc1c(N2CCCC(F)C2)nc2ccc(Br)cc2c1C(=O)NCC(CCC(=O)O)c1ccccc1C(F)(F)F` (single isomer, unassigned) [Example 191, 5-[({6-Bromo-2-[3-fluoropiperidin-1-yl]-3-methylquinolin-4-yl}carbonyl)amino]-4-[2-(trifluoromethyl)phenyl]pentanoic acid] the value was 4.1 nM.
The same measure for `Cc1c(N2CCCC(F)C2)nc2ccc(Br)cc2c1C(=O)NCC(CCC(=O)O)c1ccccc1C(F)(F)F` (single isomer, unassigned) [Example 192, 5-[({6-Bromo-2-[3-fluoropiperidin-1-yl]-3-methylquinolin-4-yl}carbonyl)amino]-4-[2-(trifluoromethyl)phenyl]pentanoic acid]: 5.6 nM.
For `CCC1CCCN(c2nc3ccc(Br)cc3c(C(=O)NCC(CCC(=O)O)c3ccccc3C(F)(F)F)c2C)C1` (single isomer, unassigned) [Example 195, 5-[({6-Bromo-2-[3-ethylpiperidin-1-yl]-3-methylquinolin-4-yl}carbonyl)amino]-4-[2-(trifluoromethyl)phenyl]pentanoic acid] the value was 77 nM; for `CCC1CCCN(c2nc3ccc(Br)cc3c(C(=O)NCC(CCC(=O)O)c3ccccc3OC(F)(F)F)c2C)C1` (single isomer, unassigned) [Example 206, 5-[({6-Bromo-2-[3-ethylpiperidin-1-yl]-3-methylquinolin-4-yl}carbonyl)amino]-4-[2-(trifluoromethoxy)phenyl]pentanoic acid], 9.5 nM.
Take `Cc1c(N2CCCCCC2)nc2ccc(Br)cc2c1C(=O)NCC(CCC(=O)O)c1c(F)ccc(F)c1Cl` (single isomer, unassigned) [Example 220, 5-({[2-(Azepan-1-yl)-6-bromo-3-methylquinolin-4-yl]carbonyl}amino)-4-(2-chloro-3,6-difluorophenyl)pentanoic acid]: the IC50 is 0.76 nM.
The same measure for `Cc1c(N2CCCC(F)C2)nc2ccc(Br)cc2c1C(=O)NCC(CCC(=O)O)c1c(Cl)ccc(Cl)c1Cl` (single isomer, unassigned) [Example 221, 5-[({6-Bromo-2-[3-fluoropiperidin-1-yl]-3-methylquinolin-4-yl}carbonyl)amino]-4-(2,3,6-trichlorophenyl)pentanoic acid]: 8.4 nM; for `Cc1c(N2CCCC(F)C2)nc2ccc(Br)cc2c1C(=O)NCC(CCC(=O)O)c1c(Cl)ccc(Cl)c1Cl` (single isomer, unassigned) [Example 222, 5-[({6-Bromo-2-[3-fluoropiperidin-1-yl]-3-methylquinolin-4-yl}carbonyl)amino]-4-(2,3,6-trichlorophenyl)pentanoic acid]: 3 nM.
For `Cc1c(N2CCCC(F)C2)nc2ccc(Br)cc2c1C(=O)NCC(CCC(=O)O)c1c(Cl)ccc(Cl)c1Cl` (single isomer, unassigned) [Example 223, 5-[({6-Bromo-2-[3-fluoropiperidin-1-yl]-3-methylquinolin-4-yl}carbonyl)amino]-4-(2,3,6-trichlorophenyl)pentanoic acid] the value was 140 nM; for `Cc1c(N2CCCC(F)C2)nc2ccc(Br)cc2c1C(=O)NCC(CCC(=O)O)c1c(Cl)ccc(Cl)c1Cl` (single isomer, unassigned) [Example 224, 5-[({6-Bromo-2-[3-fluoropiperidin-1-yl]-3-methylquinolin-4-yl}carbonyl)amino]-4-(2,3,6-trichlorophenyl)pentanoic acid], 38 nM; for `Cc1c(N2CCCC2)nc2ccc(Br)cc2c1C(=O)NCC(CCC(=O)O)c1c(F)cccc1F` (single isomer, unassigned) [Example 248, 5-({[6-Bromo-3-methyl-2-(pyrrolidin-1-yl)quinolin-4-yl]carbonyl}amino)-4-(2,6-difluorophenyl)pentanoic acid], 120 nM.
Regarding `Cc1c(N2CCCCC2)nc2ccc(Br)cc2c1C(=O)NCC(CC(=O)O)c1c(F)cccc1Cl` (single isomer, unassigned; (+)) [Example 3, (+)-4-({[6-Bromo-3-methyl-2-(piperidin-1-yl)quinolin-4-yl]carbonyl}amino)-3-(2-chloro-6-fluorophenyl)butanoic acid], the IC50 is 92 nM.
The same measure for `Cc1c(N2CCCCC2)nc2ccc(Br)cc2c1C(=O)NCC(CCC(=O)O)c1cc(F)ccc1Cl` (single isomer, unassigned; (+)) [Example 7, (+)-5-({[6-Bromo-3-methyl-2-(piperidin-1-yl)quinolin-4-yl]carbonyl}amino)-4-(2-chloro-5-fluorophenyl)pentanoic acid]: 6.6 nM.
For `Cc1c(N2CCSCC2)nc2ccc(Br)cc2c1C(=O)NCC(CCC(=O)O)c1ccccc1Cl` (single isomer, unassigned; (+)) [Example 26, (+)-5-({[6-Bromo-3-methyl-2-(thiomorpholin-4-yl)quinolin-4-yl]carbonyl}amino)-4-(2-chlorophenyl)pentanoic acid], the IC50 amounted to 21 nM.
Consider `Cc1c(N2CCCO2)nc2ccc(Br)cc2c1C(=O)NCC(CCC(=O)O)c1ccccc1Cl` (single isomer, unassigned; (+)) [Example 40, (+)-5-({[6-Bromo-3-methyl-2-(1,2-oxazolidin-2-yl)quinolin-4-yl]carbonyl}amino)-4-(2-chlorophenyl)pentanoic acid], for which the IC50 amounted to 62 nM.
On to `Cc1c(N2CCCC(C)(C)C2)nc2ccc(Br)cc2c1C(=O)NCC(CCC(=O)O)c1ccccc1Cl` (single isomer, unassigned; (+)) [Example 44, (+)-5-({[6-Bromo-2-(3,3-dimethylpiperidin-1-yl)-3-methylquinolin-4-yl]carbonyl}amino)-4-(2-chlorophenyl)pentanoic acid], for which the IC50 stood at 120 nM.
For `Cc1c(N2CCCC(C)C2)nc2ccc(Br)cc2c1C(=O)NCC(CCC(=O)O)c1ccccc1Cl` (single isomer, unassigned; (+)) [Example 47, (+)-5-[({6-Bromo-3-methyl-2-[3-methylpiperidin-1-yl]quinolin-4-yl}carbonyl)amino]-4-(2-chlorophenyl)pentanoic acid] the value was 14 nM; for `Cc1c(N2CCCC(C)C2)nc2ccc(Br)cc2c1C(=O)NCC(CCC(=O)O)c1ccccc1Cl` (single isomer, unassigned; (+)) [Example 48, (+)-5-[({6-Bromo-3-methyl-2-[3-methylpiperidin-1-yl]quinolin-4-yl}carbonyl)amino]-4-(2-chlorophenyl)pentanoic acid], 1.2 nM.
Regarding `Cc1c(N2CCCC(F)(F)C2)nc2ccc(Br)cc2c1C(=O)NCC(CCC(=O)O)c1ccccc1Cl` (single isomer, unassigned; (+)) [Example 52, (+)-5-({[6-Bromo-2-(3,3-difluoropiperidin-1-yl)-3-methylquinolin-4-yl]carbonyl}amino)-4-(2-chlorophenyl)pentanoic acid], the IC50 was determined as 7.1 nM.
The same measure for `CCC1CCCN(c2nc3ccc(Br)cc3c(C(=O)NCC(CCC(=O)O)c3ccccc3Cl)c2C)C1` (single isomer, unassigned; (+)) [Example 58, (+)-5-[({6-Bromo-2-[3-ethylpiperidin-1-yl]-3-methylquinolin-4-yl}carbonyl)amino]-4-(2-chlorophenyl)pentanoic acid]: 0.52 nM; for `CCC1CCCN(c2nc3ccc(Br)cc3c(C(=O)NCC(CCC(=O)O)c3ccccc3Cl)c2C)C1` (single isomer, unassigned; (+)) [Example 61, (+)-5-[({6-Bromo-2-[3-ethylpiperidin-1-yl]-3-methylquinolin-4-yl}carbonyl)amino]-4-(2-chlorophenyl)pentanoic acid]: 0.83 nM.
